How the values were obtained:
[1] = Plasma and tissue pharmacokinetics; assay type: in vivo, mice
Method: Plasma and tissue pharmacokinetics of the compound of Formula II, were compared following intraperitoneal administration at a dose of 8.9 mg/kg body weight. Mice were terminally anaesthetised at various times up to 75 hours after drug administration and tissue and blood was taken for preparation of samples. Plasma and tissue concentrations of the compound of Formula II were measured by high performance liquid chromatography-mass spectrophometry. The results are shown in FIG. 8, the vertical bars showing the standard deviation of the mean values from three mice per time point. The concentration of drug in plasma is very low on this scale (<100 nmol/kg), implying a high ratio of the concentration of cell-associated drug to that of external drug
Plasma and tissue pharmacokinetics, were further investigated following intraperitoneal administration of the compound of Formula II at a dose of 8.9 mg/kg. Mice were terminally anaesthetised at various times up to 75 hours after drug administration and tissue and blood was taken for preparation of samples. Plasma and tissue concentrations of the compound of Formula II were measured by high performance liquid chromatography-mass spectrophometry. The results are shown in FIG. 9, the vertical bars showing the standard deviation of the mean values from three mice per time point. The concentration differential (ie the slope of each plot) indicates the half life of the compound of Formula II in each tissue type and plasma. The half life of the compound of Formula II in various tissue types including liver, kidney, brain, heart and plasma, calculated from points on the concentration time curve, is approximately three hours. The half life of the compound of Formula II in tumour tissue, calculated from points on the concentration time curve, is approximately 9 hours. This is approximately a three-fold increase in the concentration differential in tumour tissue to non-tumour tissue and plasma concentration of Formula II. This effectively leads to an accumulation of the compound of Formula II in tumour tissue relative to other tissue.
The plasma and tissue pharmacokinetics of a compound of Formula II, were also compared with several well known cancer therapies as shown in FIG. 10. The analytical methods used to obtain data for other therapies varies and was taken from the literature. The AUC (area under the concentration-time curve) values of the compound of Formula II show approximately a 6-7 fold increase in concentration of Formula II in tumour tissue over liver tissue. The AUC values in plasma are negligible. A longer half life (higher concentration differential) in a particular tissue, leads to a larger AUC value (area under the concentration versus time curve). The AUC values provide an indication of the amount of each compound accumulated in a particular tissue or plasma over time.
The ability of different anticancer drugs to be retained selectively in tumour tissue can also be conveniently compared as the ratio of AUC values for a normal tissue versus a tumour tissue. […] Cancer Chemother Pharmacol. 1996; 38: 417-24), amsacrine and asulacrine (Kestell P, Paxton J W, Evans P C, Young D, Jurlina J L, Robertson I G C, Baguley B C. Disposition of amsacrine and its analogue 9-((2-methoxy-4-[(methylsulfonyl)-amino]phenyl)amino)-N,5-dimethyl-4-acridinecarboxamide (CI-921) in plasma, liver, and Lewis lung tumors in mice. Cancer Res 1990; 50: 503-508) and DACA (Kestell P, Dunlop I, McCrystal M R, Evans B D, Paxton J W, Gamage R S K A, Baguley B C. Plasma pharmacokinetics of DACA (N-[2-(dimethylamino)-ethyl]-acridine-4-carboxamide) in a phase I trial. Cancer Chemother Pharmacol 1999; 44: 45-50). Similar analytical methods, employing high performance liquid chromatography, were used. […]

Lewis lung = test: Murine Lewis lung tumour growth delay; assay type: in vivo; settings: intraperitoneal dose of 8.9 mg/kg
Method: In addition, the compound of Formula II, by way of an intraperitoneal dose of 8.9 mg/kg, induced a growth delay of 8.5 days in a murine tumour (Lewis lung) that is also used extensively in drug development programmes.

[2] = tested on: survivin in HCT116 (TP53 wild type); test: Inhibition of survivin production, western blotting; assay type: cell-based, human; settings: various concentrations, 24 hours
Method: Survivin is a protein that is expressed selectively in many types of cancer cells and which is known to be associated with resistance to apoptosis (Zaffaroni N and Daidone M G. Survivin expression and resistance to anticancer treatments: perspectives for new therapeutic interventions. Drug Resistance Updates: Reviews and Commentaries in Antimicrobial and Anticancer Chemotherapy. 2002 5(2):65-72). […] Extracts were prepared, proteins were separated by electrophoresis and survivin expression was determined by western blotting.

[3] = intraperitoneal 8.9 mg/kg, mice

Question: For `Cc1cccc2cc3c(=O)n(C)cc(C(=O)NCCN(C)C)c3nc12` [Formula II, N-[2-(dimethylamino)ethyl]-2,6 dimethyl-1-oxo-1,2-dihydrobenzo[b]-1,6-naphthyridine-4-carboxamide], which “ratio of AUC values (tumour/liver)” value ([1]; compared with doxorubicin, amsacrine, asulacrine and DACA) is on record?
Answer: clearly superior

Question: And the “half life in liver, kidney, brain, heart and plasma” value [1, 3]?
Answer: approximately three

Question: And the “increase in the concentration differential in tumour tissue to non-tumour tissue and plasma” value [1, 3]?
Answer: approximately three

Question: And the “concentration of drug in plasma” value ([1]; intraperitoneal 8.9 mg/kg, mice, up to 75 hours)?
Answer: < 100 nmol/kg

Question: And the “AUC: increase in concentration in tumour tissue over liver tissue” value ([1]; mice)?
Answer: 6-7 fold

Question: And the half-life ([1]; mouse, ip, colon 38 tumour tissue, intraperitoneal 8.9 mg/kg, mice)?
Answer: ~9 h

Question: And the “AUC values in plasma” value ([1]; relative to tissue AUC, mice)?
Answer: negligible

Question: What about the growth delay (Lewis lung) of the same molecule?
Answer: 8.5 days

Question: And the survivin expression [2]?
Answer: suppress survivin production

Source: patent US20080248134A1, “Oral compositions, use and combinations of N-[2-(dimethylamino)ethyl]-2,6 dimethyl-1-oxo-1,2-dihydrobenzo[b]-1,6-naphthyridine-4-carboxamide and closely related analogues thereof” (Auckland Uniservices Limited, priority 2005, published 2008)
